Data taken from article PMC11760891, “Discovery and Characterization of Two Selective Inhibitors for a Mu-Class Glutathione S-Transferase of 25 kDa from Taenia solium Using Computational and Bioinformatics Tools” (Biomolecules, 2024).

Tests used:
HGSTM1 = molecular target: T1, HGSTM1 (Homo sapiens, UniProt P09488); assay: GSH-CDNB conjugation, absorbance […] nm, single concentration; format: biochemical
T1 construct: gene GSTM1; commercial human GST M1 (Oxford Biomedical Research GS65)
T1 sequence (P09488 2-218): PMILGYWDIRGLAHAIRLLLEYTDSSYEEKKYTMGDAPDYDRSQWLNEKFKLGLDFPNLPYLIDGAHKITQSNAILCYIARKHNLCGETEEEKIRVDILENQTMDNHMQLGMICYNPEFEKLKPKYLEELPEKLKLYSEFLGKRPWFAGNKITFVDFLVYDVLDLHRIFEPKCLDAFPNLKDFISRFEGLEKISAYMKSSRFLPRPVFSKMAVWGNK

Ts25GST = molecular target: T2, Ts25GST (Taenia solium, UniProt Q8MWS0); assay: GSH-CDNB conjugation, absorbance […] nm, dose-response; format: biochemical
T2 construct: about 25 kDa on SDS-PAGE; dimer; no tag mentioned
T2 sequence (Q8MWS0 1-219): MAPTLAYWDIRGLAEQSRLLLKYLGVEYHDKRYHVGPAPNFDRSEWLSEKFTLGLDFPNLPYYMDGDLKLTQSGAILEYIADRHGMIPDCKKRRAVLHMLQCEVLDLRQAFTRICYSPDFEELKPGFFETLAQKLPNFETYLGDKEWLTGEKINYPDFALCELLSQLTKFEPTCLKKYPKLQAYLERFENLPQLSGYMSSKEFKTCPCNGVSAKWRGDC

For `O=C(CSc1ncc(-c2ccccc2)nn1)NC1=NN=C(c2ccccc2)CS1` [i11], the inhibition at 40 µM (HGSTM1) was 33.4 ± 2.2%.

With `O=C(CCN1C(=O)c2ccccc2C1=O)Nc1ccc(Nc2ccccc2)cc1` [i15] the IC50 (Ts25GST) was 25.7 ± 1.1 µM and the inhibition at 40 µM (HGSTM1) was 30.8 ± 1.9%.
